{"source": "patent US20150374673A1", "about": "“Combination Therapy for the Treatment of Nosocomial Pneumonia” (priority 2013, published 2015)", "key": {"Penetration to human ELF": {"experiment": "Penetration to human ELF", "assay_type": "in vivo", "details": "epithelial lining fluid (ELF)"}, "P. aeruginosa": {"test_system": "P. aeruginosa", "experiment": "In vivo efficacy, ceftazidime directed ELF fT>MIC regimen, neutropenic lung infection model (ICR mice)", "design": "species or system Pseudomonas aeruginosa", "details": "for Change log CFU Mean: 24 h", "method": "It has been observed in surveillance studies that the MIC90 for ceftazidime-avibactam against P. aeruginosa is 8 μg/mL (10-12). Given this, there are few isolates with higher MICs and the number that would grow within the murine lung infection model is even less. […] Doses of the previous humanized regimen described above were […] throughout the dosing period and further pharmacokinetic studies were performed. […] Mice were euthanized and serum and BAL samples were collected, as described above, at predetermined times.\nFor these studies, 9 P. aeruginosa isolates were evaluated against the CAZ regimen in mice that yielded specific ELF fT>MIC. Doses were initiated 2 hours after inoculation of the test organisms ? and all doses were administered as 0.2 mL subcutaneous injections and consisted of three 8 hour dosing intervals (i.e. 24 hours). To serve as control animals, an additional group of mice were administered normal saline at the same volume, route, and frequency as the treatment regimen. The harvesting procedure for all study mice began with euthanization by CO2 exposure followed by cervical dislocation. After sacrifice, lungs were removed and individually homogenized in normal saline. Serial dilutions of the lung homogenate were plated on trypticase soy agar with 5% sheep blood for CFU determination. In addition to the above mentioned treatment and control groups, another group of 6 infected, untreated mice were harvested at the initiation of dosing and served as 0 h controls. Efficacy, designated as the change in bacterial density, was calculated as the change in log10 bacterial CFU obtained for treated mice after 24 h from that of that starting densities observed in 0 h control animals."}, "[1]": {"test_system": "all isolates (Enterobacteriaceae, P. aeruginosa, S. aureus, E. faecalis)", "experiment": "Checkerboard assay, mean FICI over all isolates", "assay_type": "cell-based", "method": "All MIC determinations including those performed in the checkerboard assay were done in cation-adjusted Mueller-Hinton broth (purchased from Becton Dickinson, Oxford UK).\n(§1) Initial MIC data were determined by microbroth dilution methods as recommended by CLSI (2012b). Checkerboards were made in accordance with the method given by Pillai et. al., ? Antimicrobial Combinations in Antibiotics, LABORATORY MEDICINE (Lorian Ed., 3rd Ed. (2003)) p. 365-440 as per standard microbroth dilution tests but with agents in combination. […] A final avibactam concentration of 4 mg/L was used throughout the study. Antibacterial agents were combined into microtitre plates using the Evolution III liquid handling system.\nCheckerboard plates were inoculated and incubated in accordance with CLSI guidelines (2012b) at 35±2° C. in ambient air for 16-20 h. MICs were recorded the following day as the lowest concentration or combination of concentrations required to inhibit all visible growth. From the MIC data, FICIs were calculated for each checkerboard according to the method of Meletiadis et. al., Defining Fractional Inhibitory Concentration Index Cutoffs for Additive Interactions Based on Self-Drug Additive Combinations, Monte Carlo Simulation Analysis and in vitro-in vivo Correlation Data for Antifungal Drug Combinations Against Aspergillus fumigatus, AAC 54:602-09 (2010).\nFICI=FICA+FICB=(CA/MICA)+(CB/MICB)\nAs each checkerboard gives a number of FICI values, an arithmetic mean is calculated from all values to give the mean FICI for two agents combined against one isolate. Mean FICIs were interpreted by the following criteria given by Odds (2003) which are now the accepted criteria by most journals: […]"}, "Pseudomonas aeruginosa": {"test_system": "Pseudomonas aeruginosa", "experiment": "MIC of ceftazidime-resistant P. aeruginosa strains, microdilution according to ISO guidelines", "assay_type": "cell-based", "method": "(§2) Seven well-characterized ceftazidime-resistant Pseudomonas aeruginosa strains, obtained from a variety of clinically relevant sources, were used in the experiments as shown in Table 1. MICs were taken from an earlier in vitro checkerboard study (Berkhout & Mouton 2013 CAZ-AVI-M1-061) and were determined by microdilution according to the ISO-guidelines (ISO 2006). This method is CLSI compatible.\nas §2, with “[…].” for “Table 1.”, “determined in” for “taken from”, “(AstraZeneca study report #” for “(Berkhout & Mouton 2013”"}, "Gram-negative isolates": {"test_system": "Gram-negative isolates", "experiment": "MIC alone compared with MIC in presence of Cmax and 0.5×Cmax of vancomycin and linezolid, all Gram-negative isolates", "assay_type": "cell-based", "details": "with Cmax and 0.5×Cmax of vancomycin and linezolid", "method": "as §1"}, "[2]": {"details": "with Col, Gram-negative isolates"}, "[3]": {"details": "with Lzd, Gram-positive isolates"}, "[4]": {"details": "with Van, Gram-positive isolates"}}, "note": "Entries after “also recorded” stand apart in the source; their conditions may differ. Where two headings read alike, the source gives them in different places.", "data": [{"smiles": "NC(=O)[C@@H]1CC[C@@H]2CN1C(=O)N2OS(=O)(=O)[O-].[Na+]", "note": "[avibactam, [(2S,5R)-2-carbamoyl-7-oxo-1,6-diazabicyclo[3.2.1]octan-6-yl]hydrogen sulfate]", "values": [{"measurement": "Kp", "setting": "Penetration to human ELF", "value": "~0.3"}]}, {"smiles": "CC(C)(O/N=C(\\C(=O)N[C@@H]1C(=O)N2C(C(=O)[O-])=C(C[n+]3ccccc3)CS[C@H]12)c1csc(N)n1)C(=O)O", "note": "[ceftazidime, (6R,7R)-7-[[(2Z)-2-(2-amino-1,3-thiazol-4-yl)-2-(1-hydroxy-2-methyl-1-oxopropan-2-yl)oxyiminoacetyl]amino]-8-oxo-3-(pyridin-1-ium-1-ylmethyl)-5-thia-1-azabicyclo[4.2.0]oct-2-ene-2-carboxylate pentahydrate]", "values": [{"measurement": "activity in neutropenic lung infection model", "setting": "P. aeruginosa; directed ELF fT>MIC regimen, isolates with MICs of 32 μg/mL", "value": "Activity was observed"}, {"measurement": "activity in neutropenic lung infection model", "setting": "P. aeruginosa; in vivo", "value": "Efficacy was variable; also recorded: little to no activity"}, {"measurement": "Change log CFU Mean", "setting": "P. aeruginosa; isolate PSA 968, control 0 h 5.98, 24 h 9.76", "value": 4.45, "unit": "log CFU"}, {"measurement": "Change log CFU Mean", "setting": "P. aeruginosa; isolate PSA 1382, control 0 h 5.91, 24 h 8.64", "value": 6.42, "unit": "log CFU"}, {"measurement": "Change log CFU Mean", "setting": "P. aeruginosa; isolate PSA 1383, control 0 h 5.77, 24 h 7.29", "value": 3.73, "unit": "log CFU"}, {"measurement": "Change log CFU Mean", "setting": "P. aeruginosa; isolate PSA 1384, control 0 h 5.86, 24 h 7.61", "value": 4.4, "unit": "log CFU"}, {"measurement": "Change log CFU Mean", "setting": "P. aeruginosa; isolate PSA 1386, control 0 h 5.79, 24 h 9.67", "value": 5.98, "unit": "log CFU"}, {"measurement": "Change log CFU Mean", "setting": "P. aeruginosa; isolate PSA 1387, control 0 h 6.39, 24 h 9.45", "value": 4.23, "unit": "log CFU"}, {"measurement": "Change log CFU Mean", "setting": "P. aeruginosa; isolate PSA 1388, control 0 h 5.86, 24 h 8.39", "value": 5.54, "unit": "log CFU"}, {"measurement": "Change log CFU Mean", "setting": "P. aeruginosa; isolate PSA 1389, control 0 h 5.68, 24 h 9.67", "value": 6.3, "unit": "log CFU"}, {"measurement": "Change log CFU Mean", "setting": "P. aeruginosa; isolate PSA 1394, control 0 h 5.58, 24 h 7.73", "value": 5.96, "unit": "log CFU"}, {"measurement": "interaction, synergistic or antagonistic, with any other antibacterial agent", "setting": "[1]; tobramycin, levofloxacin, vancomycin, linezolid, tigecycline, colistin", "value": "No interaction"}, {"measurement": "Mean FICI range high", "setting": "[1]; [2]", "value": 1.66}, {"measurement": "Mean FICI range low", "setting": "[1]; [2]", "value": 0.85}, {"measurement": "Mean FICI range high", "setting": "[1]; with Lev, all isolates", "value": 1.33}, {"measurement": "Mean FICI range low", "setting": "[1]; with Lev, all isolates", "value": 0.78}, {"measurement": "Mean FICI range high", "setting": "[1]; [3]", "value": 1.64}, {"measurement": "Mean FICI range low", "setting": "[1]; [3]", "value": 0.99}, {"measurement": "Mean FICI range high", "setting": "[1]; with Tig, all isolates", "value": 1.99}, {"measurement": "Mean FICI range low", "setting": "[1]; with Tig, all isolates", "value": 0.73}, {"measurement": "Mean FICI range high", "setting": "[1]; with Tob, all isolates", "value": 1.60}, {"measurement": "Mean FICI range low", "setting": "[1]; with Tob, all isolates", "value": 0.64}, {"measurement": "Mean FICI range high", "setting": "[1]; [4]", "value": 1.63}, {"measurement": "Mean FICI range low", "setting": "[1]; [4]", "value": 0.99}, {"measurement": "MIC", "setting": "Pseudomonas aeruginosa; P. aeruginosa isolate no. 1, CAZ-AVI determined at 4 mg/L avibactam", "value": 128, "unit": "µg/mL"}, {"measurement": "MIC", "setting": "Pseudomonas aeruginosa; P. aeruginosa isolate no. 11, CAZ-AVI determined at 4 mg/L avibactam", "value": 128, "unit": "µg/mL"}, {"measurement": "MIC", "setting": "Pseudomonas aeruginosa; Pseudomonas aeruginosa", "value": 128, "unit": "µg/mL"}, {"measurement": "MIC", "setting": "Pseudomonas aeruginosa; Pseudomonas aeruginosa, P. aeruginosa isolate no. 3, CAZ-AVI determined at 4 mg/L avibactam, read-out: MIC", "value": 64, "unit": "µg/mL"}, {"measurement": "MIC", "setting": "Pseudomonas aeruginosa; Pseudomonas aeruginosa, P. aeruginosa isolate no. 7, CAZ-AVI determined at 4 mg/L avibactam, read-out: MIC", "value": 64, "unit": "µg/mL"}, {"measurement": "MIC", "setting": "Pseudomonas aeruginosa; Pseudomonas aeruginosa, P. aeruginosa isolate no. 18, CAZ-AVI determined at 4 mg/L avibactam, read-out: MIC", "value": 32, "unit": "µg/mL"}, {"measurement": "MIC", "setting": "Pseudomonas aeruginosa; Pseudomonas aeruginosa, P. aeruginosa isolate no. 19, CAZ-AVI determined at 4 mg/L avibactam, read-out: MIC", "value": 64, "unit": "µg/mL"}, {"measurement": "MIC alone and in combination", "setting": "Gram-negative isolates", "value": "remained within one doubling dilution in all cases"}]}]}
